Measured values as given in US6355799B1, “Substituted benzene compounds, process for their preparation, and herbicidal and defoliant compositions containing them” (ISK Americas Incorporated, priority 1997, dated 2002).

How the values were obtained:
Type in all cases: in vivo
[1] = test system: redroot pigweed (Amaranthus retroflexus, AMARE); assay: Pre-emerge test, greenhouse herbicide activity screening; details: pre-emerge, rated 14 days after application, 0 = no damage, 100 = complete death
How it was run: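 Compounds in acetone were track-sprayed at 187 l/ha, 15–1000 g ai/ha, onto sandy loam pots. Pre-emerge seeds were sown one day before spraying, with surface watering afterwards. Post-emerge plants were at the 2–3 leaf stage and sprayed with 0.25% v/v non-ionic surfactant. Injury was rated 0–100 at 14 days.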

[2] = test system: field corn (Zea mays L., var. Dekalb 535, CORN); assay: Post-emerge test, crop safety; details: phytotoxicity rating 0-100 (0 no damage, 100 complete death), 14 days after application
How it was run: (§1)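 Herbicidal damage is scored 0 (none) to 100 (complete plant death) two weeks after a simulated field spray. Rates span 15–1000 g ai/ha, delivered in acetone at 187 l/ha. For post-emergence treatments, plants have 2–3 leaves and the spray carries 0.25% v/v non-ionic surfactant.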

[3] = test system: upland rice (Oryza sp., var. Tebonnet, RICE); assay: Post-emerge test, crop safety; details: phytotoxicity rating 0-100 (0 no damage, 100 complete death), 14 days after application
How it was run: as §1

[4] = test system: barnyardgrass (Echinochloa crus-galli, ECHCG); assay: Post-emerge test, greenhouse herbicide activity screening; details: phytotoxicity rating 0-100 (0 no damage, 100 complete death), 14 days after application
How it was run: (§2)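 Applied at 15–1000 g ai/ha from acetone in 187 l/ha spray volume. Post-emergence applications included 0.25% v/v non-ionic surfactant and reached plants sown 8–21 days before. Pre-emergence applications were incorporated by surface watering. Efficacy or crop damage was rated on a 0–100 scale after 14 days.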

[5] = test system: ivyleaf morningglory (Ipomoea hederacea, IPOHE); assay: as above; details: phytotoxicity rating 0-100 (0 no damage, 100 complete death), 14 days after application
How it was run: as §2

[6] = test system: green foxtail (Setaria viridis, SETVI); assay: as above; details: phytotoxicity rating 0-100 (0 no damage, 100 complete death), 14 days after application
How it was run: as §2

[7] = test system: large crabgrass (Digitaria sanguinalis, DIGSA); assay: as above; details: phytotoxicity rating 0-100 (0 no damage, 100 complete death), 14 days after application
How it was run: as §2

[8] = test system: redroot pigweed (Amaranthus retroflexus, AMARE); assay: as above; details: phytotoxicity rating 0-100 (0 no damage, 100 complete death), 14 days after application
How it was run: as §2

[9] = test system: lambsquarters (Chenopodium album, CHEAL); assay: as above; details: phytotoxicity rating 0-100 (0 no damage, 100 complete death), 14 days after application
How it was run: as §2

[10] = test system: johnsongrass (Sorghum halepense, SORHA); assay: as above; details: phytotoxicity rating 0-100 (0 no damage, 100 complete death), 14 days after application
How it was run: as §2

[11] = test system: velvetleaf (Abutilon theophrasti, ABUTH); assay: as above; details: phytotoxicity rating 0-100 (0 no damage, 100 complete death), 14 days after application
How it was run: as §2

[12] = test system: field corn (Zea mays L., var. Dekalb 535, CORN); assay: Pre-emerge test, crop safety; details: pre-emerge, rated 14 days after application, 0 = no damage, 100 = complete death
How it was run: (§3)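 Visual ratings on a 0-100 scale (0 no damage, 100 all plants dead) were taken at 14 days after treatment. Rates of 15-1000 g ai/ha in acetone, 187 l/ha, were sprayed onto soil one day after planting (pre-emerge) or onto 2-3 leaf plants with 0.25% v/v surfactant (post-emerge).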

[13] = test system: upland rice (Oryza sp., var. Tebonnet, RICE); assay: Pre-emerge test, crop safety; details: pre-emerge, rated 14 days after application, 0 = no damage, 100 = complete death
How it was run: as §3

[14] = test system: barnyardgrass (Echinochloa crus-galli, ECHCG); assay: Pre-emerge test, greenhouse herbicide activity screening; details: pre-emerge, rated 14 days after application, 0 = no damage, 100 = complete death
How it was run: as §1

[15] = test system: ivyleaf morningglory (Ipomoea hederacea, IPOHE); assay: as above; details: pre-emerge, rated 14 days after application, 0 = no damage, 100 = complete death
How it was run: as §1

[16] = test system: green foxtail (Setaria viridis, SETVI); assay: as above; details: pre-emerge, rated 14 days after application, 0 = no damage, 100 = complete death
How it was run: as §1

[17] = test system: large crabgrass (Digitaria sanguinalis, DIGSA); assay: as above; details: pre-emerge, rated 14 days after application, 0 = no damage, 100 = complete death
How it was run: as §1

[18] = test system: lambsquarters (Chenopodium album, CHEAL); assay: as above; details: pre-emerge, rated 14 days after application, 0 = no damage, 100 = complete death
How it was run: as §1

[19] = test system: sicklepod (Cassia obtusifolia, CASOB); assay: as above; details: pre-emerge, rated 14 days after application, 0 = no damage, 100 = complete death
How it was run: as §1

[20] = test system: johnsongrass (Sorghum halepense, SORHA); assay: as above; details: pre-emerge, rated 14 days after application, 0 = no damage, 100 = complete death
How it was run: as §1

[21] = test system: velvetleaf (Abutilon theophrasti, ABUTH); assay: as above; details: pre-emerge, rated 14 days after application, 0 = no damage, 100 = complete death
How it was run: as §1

C=Cc1ccc(C(=O)Nc2c(OC)c(Cl)cc(F)c2-n2c(=O)cc(C(F)(F)F)n(C)c2=O)cc1 [2-31]
Pre-emerge Herbicidal Activity AMARE (phytotoxicity rating, scale 0-100) ([1]; 63 g ai/ha): 100
Pre-emerge Herbicidal Activity AMARE (phytotoxicity rating, scale 0-100) ([1]; 250 g ai/ha): 100
Post-emerge Herbicidal Activity CORN (crop damage) ([2]; 63 g ai/ha): 40
Post-emerge Herbicidal Activity CORN (crop damage) ([2]; 250 g ai/ha): 60
Post-emerge Herbicidal Activity RICE (crop damage) ([3]; 63 g ai/ha): 50
Post-emerge Herbicidal Activity RICE (crop damage) ([3]; 250 g ai/ha): 70
Post-emerge Herbicidal Activity ECHCG ([4]; 63 g ai/ha): 10
Post-emerge Herbicidal Activity ECHCG ([4]; 250 g ai/ha): 40
Post-emerge Herbicidal Activity IPOHE ([5]; 63 g ai/ha): 90
Post-emerge Herbicidal Activity IPOHE ([5]; 250 g ai/ha): 100
Post-emerge Herbicidal Activity SETVI ([6]; 63 g ai/ha): 10
Post-emerge Herbicidal Activity SETVI ([6]; 250 g ai/ha): 20
Post-emerge Herbicidal Activity DIGSA ([7]; 63 g ai/ha): 0
Post-emerge Herbicidal Activity DIGSA ([7]; 250 g ai/ha): 20
Post-emerge Herbicidal Activity AMARE ([8]; 63 g ai/ha): 100
Post-emerge Herbicidal Activity AMARE ([8]; 250 g ai/ha): 90
Post-emerge Herbicidal Activity CHEAL ([9]; 63 g ai/ha): 80
Post-emerge Herbicidal Activity CHEAL ([9]; 250 g ai/ha): 95
Post-emerge Herbicidal Activity SORHA ([10]; 63 g ai/ha): 10
Post-emerge Herbicidal Activity SORHA ([10]; 250 g ai/ha): 30
Post-emerge Herbicidal Activity ABUTH ([11]; 63 g ai/ha): 100
Post-emerge Herbicidal Activity ABUTH ([11]; 250 g ai/ha): 100
Pre-emerge crop damage CORN (phytotoxicity rating, scale 0-100) ([12]; 63 g ai/ha): 20
Pre-emerge crop damage CORN (phytotoxicity rating, scale 0-100) ([12]; 250 g ai/ha): 40
Pre-emerge crop damage RICE (phytotoxicity rating, scale 0-100) ([13]; 63 g ai/ha): 40
Pre-emerge crop damage RICE (phytotoxicity rating, scale 0-100) ([13]; 250 g ai/ha): 90
Pre-emerge Herbicidal Activity ECHCG (phytotoxicity rating, scale 0-100) ([14]; 63 g ai/ha): 40
Pre-emerge Herbicidal Activity ECHCG (phytotoxicity rating, scale 0-100) ([14]; 250 g ai/ha): 100
Pre-emerge Herbicidal Activity IPOHE (phytotoxicity rating, scale 0-100) ([15]; 63 g ai/ha): 100
Pre-emerge Herbicidal Activity IPOHE (phytotoxicity rating, scale 0-100) ([15]; 250 g ai/ha): 100
Pre-emerge Herbicidal Activity SETVI (phytotoxicity rating, scale 0-100) ([16]; 63 g ai/ha): 100
Pre-emerge Herbicidal Activity SETVI (phytotoxicity rating, scale 0-100) ([16]; 250 g ai/ha): 100
Pre-emerge Herbicidal Activity DIGSA (phytotoxicity rating, scale 0-100) ([17]; 63 g ai/ha): 90
Pre-emerge Herbicidal Activity DIGSA (phytotoxicity rating, scale 0-100) ([17]; 250 g ai/ha): 100
Pre-emerge Herbicidal Activity CHEAL (phytotoxicity rating, scale 0-100) ([18]; 63 g ai/ha): 100
Pre-emerge Herbicidal Activity CHEAL (phytotoxicity rating, scale 0-100) ([18]; 250 g ai/ha): 100
Pre-emerge Herbicidal Activity CASOB (phytotoxicity rating, scale 0-100) ([19]; 63 g ai/ha): 100
Pre-emerge Herbicidal Activity CASOB (phytotoxicity rating, scale 0-100) ([19]; 250 g ai/ha): 100
Pre-emerge Herbicidal Activity SORHA (phytotoxicity rating, scale 0-100) ([20]; 63 g ai/ha): 60
Pre-emerge Herbicidal Activity SORHA (phytotoxicity rating, scale 0-100) ([20]; 250 g ai/ha): 85
Pre-emerge Herbicidal Activity ABUTH (phytotoxicity rating, scale 0-100) ([21]; 63 g ai/ha): 100
Pre-emerge Herbicidal Activity ABUTH (phytotoxicity rating, scale 0-100) ([21]; 250 g ai/ha): 100
